Reference: US10131652B2, “Pyrimidinyloxy benzene derivatives as herbicides” (E. I. DU PONT DE NEMOURS AND COMPANY, priority 2014, dated 2018)
Like-named read-outs stand apart in the source and are kept apart here.

Legend:
Experiment in all cases: Test E pre-/postemergence plant response
Format in all cases: in vivo
[1] = tested on: downy bromegrass (Bromus tectorum); settings: scale 0 to 100, read-out: Plant response rating, Bromegrass, Downy; for pest or weed control at 16 g/ha: 16 g ai/ha; for pest or weed control at 31 g/ha: 31 g ai/ha; for pest or weed control at 62 g/ha: 62 g ai/ha; for pest or weed control at 125 g/ha: 125 g ai/ha
Description: (§1) Seeds of plant species selected from bluegrass (annual bluegrass, Poa annua), blackgrass (Alopecurus myosuroides), canarygrass (Phalaris minor), chickweed (common chickweed, Stellaria media), galium (catchweed bedstraw, Galium aparine), downy bromegrass (Bromus tectorum), field poppy (Papaver rhoeas), field violet (Viola arvensis), green foxtail (Setaria viridis), deadnettle (henbit deadnettle, Lamium amplexicaule), Italian ryegrass (Lolium multiflorum), kochia (Kochia scoparia), lambsquarters (Chenopodium album), oilseed rape (Brassica napus), pigweed (Amaranthus retroflexus), Russian thistle (Salsola iberica), chamomile (scentless chamomile, Matricaria inodora), speedwell (bird's-eye speedwell, Veronica persica), spring barley (Hordeum vulgare), spring wheat (Triticum aestivum), wild buckwheat (Polygonum convolvulus), wild mustard (Sinapis arvensis), wild oat (Avena fatua), wild radish (Raphanus raphanistrum), windgrass (Apera spica-venti), winter barley (Hordeum vulgare), and winter wheat (Triticum aestivum) were planted into a silt loam soil and treated preemergence with test chemicals formulated in a non-phytotoxic solvent mixture which included a surfactant. At the same time, these species were planted in pots containing Redi-Earth® planting medium (Scotts Company, 14111 Scottslawn Road, Marysville, Ohio 43041) comprising spaghnum peat moss, vermiculite, wetting agent and starter nutrients and treated with postemergence applications of the test chemicals formulated in the same manner. Plants ranged in height from 2 to 18 cm (1- to 4-leaf stage).
(§2) Treated plants and controls were maintained in a controlled growth environment for 7 to 21 days after which time all species were compared to controls and visually evaluated. Plant response ratings, summarized in Table E, are based on a scale of 0 to 100 where 0 is no effect and 100 is complete control. A dash (-) response means no test result.

[2] = tested on: deadnettle (henbit deadnettle, Lamium amplexicaule); settings: scale 0 to 100, read-out: Plant response rating, Deadnettle; for pest or weed control at 16 g/ha: 16 g ai/ha; for pest or weed control at 31 g/ha: 31 g ai/ha; for pest or weed control at 62 g/ha: 62 g ai/ha; for pest or weed control at 125 g/ha: 125 g ai/ha
Description: as §1, §2

[3] = tested on: pigweed (Amaranthus retroflexus); settings: scale 0 to 100, read-out: Plant response rating, Pigweed; for pest or weed control at 16 g/ha: 16 g ai/ha; for pest or weed control at 31 g/ha: 31 g ai/ha; for pest or weed control at 62 g/ha: 62 g ai/ha; for pest or weed control at 125 g/ha: 125 g ai/ha
Description: as §1, §2

[4] = tested on: green foxtail (Setaria viridis); settings: scale 0 to 100, read-out: Plant response rating, Foxtail, Green; for pest or weed control at 16 g/ha: 16 g ai/ha; for pest or weed control at 31 g/ha: 31 g ai/ha; for pest or weed control at 62 g/ha: 62 g ai/ha; for pest or weed control at 125 g/ha: 125 g ai/ha
Description: as §1, §2

[5] = tested on: winter barley (Hordeum vulgare); settings: scale 0 to 100, read-out: Plant response rating, Barley, Winter; for plant injury at 16 g/ha: 16 g ai/ha; for plant injury at 31 g/ha: 31 g ai/ha; for plant injury at 62 g/ha: 62 g ai/ha; for plant injury at 125 g/ha: 125 g ai/ha
Description: as §1, §2

[6] = tested on: blackgrass (Alopecurus myosuroides); settings: scale 0 to 100, read-out: Plant response rating, Blackgrass; for pest or weed control at 16 g/ha: 16 g ai/ha; for pest or weed control at 31 g/ha: 31 g ai/ha; for pest or weed control at 62 g/ha: 62 g ai/ha; for pest or weed control at 125 g/ha: 125 g ai/ha
Description: as §1, §2

[7] = tested on: chamomile (scentless chamomile, Matricaria inodora); settings: Tripleurospermum inodorum, scale 0 to 100, read-out: Plant response rating, Chamomile; for pest or weed control at 16 g/ha: 16 g ai/ha; for pest or weed control at 31 g/ha: 31 g ai/ha; for pest or weed control at 62 g/ha: 62 g ai/ha; for pest or weed control at 125 g/ha: 125 g ai/ha
Description: as §1, §2

[8] = tested on: field poppy (Papaver rhoeas); settings: scale 0 to 100, read-out: Plant response rating, Field Poppy; for pest or weed control at 16 g/ha: 16 g ai/ha; for pest or weed control at 31 g/ha: 31 g ai/ha; for pest or weed control at 62 g/ha: 62 g ai/ha; for pest or weed control at 125 g/ha: 125 g ai/ha
Description: as §1, §2

[9] = tested on: windgrass (Apera spica-venti); settings: scale 0 to 100, read-out: Plant response rating, Windgrass; for pest or weed control at 16 g/ha: 16 g ai/ha; for pest or weed control at 62 g/ha: 62 g ai/ha; for pest or weed control at 125 g/ha: 125 g ai/ha
Description: as §1, §2

[10] = tested on: canarygrass (Phalaris minor); settings: scale 0 to 100, read-out: Plant response rating, Canarygrass; for pest or weed control at 16 g/ha: 16 g ai/ha; for pest or weed control at 31 g/ha: 31 g ai/ha; for pest or weed control at 62 g/ha: 62 g ai/ha; for pest or weed control at 125 g/ha: 125 g ai/ha
Description: as §1, §2

[11] = tested on: wild mustard (Sinapis arvensis); settings: Brassica, scale 0 to 100, read-out: Plant response rating, Mustard, Wild; for pest or weed control at 16 g/ha: 16 g ai/ha; for pest or weed control at 31 g/ha: 31 g ai/ha; for pest or weed control at 62 g/ha: 62 g ai/ha; for pest or weed control at 125 g/ha: 125 g ai/ha
Description: as §1, §2

SMILES: Fc1cccc(Oc2ncc(Br)cn2)c1-c1cc(C(F)F)no1 [Compound 145, 5-bromo-2-[2-[3-(difluoromethyl)-5-isoxazolyl]-3-fluorophenoxy]pyrimidine]
- pest or weed control at 16 g/ha ([1]; post-emergence, Postemergence): 25%
- pest or weed control at 31 g/ha ([1]; post-emergence, Postemergence): 35%
- pest or weed control at 62 g/ha ([1]; post-emergence, Postemergence): 55%
- pest or weed control at 125 g/ha ([1]; post-emergence, Postemergence): 55%
- pest or weed control at 16 g/ha ([1]; pre-emergence, Preemergence): 10%
- pest or weed control at 31 g/ha ([1]; pre-emergence, Preemergence): 20%
- pest or weed control at 62 g/ha ([1]; pre-emergence, Preemergence): 35%
- pest or weed control at 125 g/ha ([1]; pre-emergence, Preemergence): 60%
- pest or weed control at 16 g/ha ([2]; post-emergence, Postemergence): 100%
- pest or weed control at 31 g/ha ([2]; post-emergence, Postemergence): 100%
- pest or weed control at 62 g/ha ([2]; post-emergence, Postemergence): 100%
- pest or weed control at 125 g/ha ([2]; post-emergence, Postemergence): 100%
- pest or weed control at 16 g/ha ([2]; pre-emergence, Preemergence): 0%
- pest or weed control at 31 g/ha ([2]; pre-emergence, Preemergence): 100%
- pest or weed control at 62 g/ha ([2]; pre-emergence, Preemergence): 100%
- pest or weed control at 125 g/ha ([2]; pre-emergence, Preemergence): 100%
- pest or weed control at 16 g/ha ([3]; post-emergence, Postemergence): 100%
- pest or weed control at 31 g/ha ([3]; post-emergence, Postemergence): 100%
- pest or weed control at 62 g/ha ([3]; post-emergence, Postemergence): 100%
- pest or weed control at 125 g/ha ([3]; post-emergence, Postemergence): 100%
- pest or weed control at 16 g/ha ([3]; pre-emergence, Preemergence): 100%
- pest or weed control at 31 g/ha ([3]; pre-emergence, Preemergence): 100%
- pest or weed control at 62 g/ha ([3]; pre-emergence, Preemergence): 100%
- pest or weed control at 125 g/ha ([3]; pre-emergence, Preemergence): 100%
- pest or weed control at 16 g/ha ([4]; post-emergence, Postemergence): 15%
- pest or weed control at 31 g/ha ([4]; post-emergence, Postemergence): 30%
- pest or weed control at 62 g/ha ([4]; post-emergence, Postemergence): 40%
- pest or weed control at 125 g/ha ([4]; post-emergence, Postemergence): 98%
- pest or weed control at 16 g/ha ([4]; pre-emergence, Preemergence): 0%
- pest or weed control at 31 g/ha ([4]; pre-emergence, Preemergence): 45%
- pest or weed control at 62 g/ha ([4]; pre-emergence, Preemergence): 55%
- pest or weed control at 125 g/ha ([4]; pre-emergence, Preemergence): 100%
- plant injury at 16 g/ha ([5]; post-emergence, Postemergence): 15%
- plant injury at 31 g/ha ([5]; post-emergence, Postemergence): 15%
- plant injury at 62 g/ha ([5]; post-emergence, Postemergence): 30%
- plant injury at 125 g/ha ([5]; post-emergence, Postemergence): 40%
- plant injury at 16 g/ha ([5]; pre-emergence, Preemergence): 10%
- plant injury at 31 g/ha ([5]; pre-emergence, Preemergence): 15%
- plant injury at 62 g/ha ([5]; pre-emergence, Preemergence): 30%
- plant injury at 125 g/ha ([5]; pre-emergence, Preemergence): 85%
- pest or weed control at 16 g/ha ([6]; post-emergence, Postemergence): 25%
- pest or weed control at 31 g/ha ([6]; post-emergence, Postemergence): 35%
- pest or weed control at 62 g/ha ([6]; post-emergence, Postemergence): 65%
- pest or weed control at 125 g/ha ([6]; post-emergence, Postemergence): 80%
- pest or weed control at 16 g/ha ([6]; pre-emergence, Preemergence): 10%
- pest or weed control at 31 g/ha ([6]; pre-emergence, Preemergence): 50%
- pest or weed control at 62 g/ha ([6]; pre-emergence, Preemergence): 60%
- pest or weed control at 125 g/ha ([6]; pre-emergence, Preemergence): 75%
- pest or weed control at 16 g/ha ([7]; post-emergence, Postemergence): 20%
- pest or weed control at 31 g/ha ([7]; post-emergence, Postemergence): 30%
- pest or weed control at 62 g/ha ([7]; post-emergence, Postemergence): 30%
- pest or weed control at 125 g/ha ([7]; post-emergence, Postemergence): 30%
- pest or weed control at 16 g/ha ([7]; pre-emergence, Preemergence): 5%
- pest or weed control at 31 g/ha ([7]; pre-emergence, Preemergence): 100%
- pest or weed control at 62 g/ha ([7]; pre-emergence, Preemergence): 100%
- pest or weed control at 125 g/ha ([7]; pre-emergence, Preemergence): 100%
- pest or weed control at 16 g/ha ([8]; post-emergence, Postemergence): 100%
- pest or weed control at 31 g/ha ([8]; post-emergence, Postemergence): 100%
- pest or weed control at 62 g/ha ([8]; post-emergence, Postemergence): 100%
- pest or weed control at 125 g/ha ([8]; post-emergence, Postemergence): 100%
- pest or weed control at 16 g/ha ([8]; pre-emergence, Preemergence): 100%
- pest or weed control at 31 g/ha ([8]; pre-emergence, Preemergence): 100%
- pest or weed control at 62 g/ha ([8]; pre-emergence, Preemergence): 100%
- pest or weed control at 125 g/ha ([8]; pre-emergence, Preemergence): 100%
- pest or weed control at 16 g/ha ([9]; post-emergence, Postemergence): 5%
- pest or weed control at 31 g/ha ([9]; post-emergence, 31 g ai/ha, Postemergence): 10%
- pest or weed control at 62 g/ha ([9]; post-emergence, Postemergence): 20%
- pest or weed control at 125 g/ha ([9]; post-emergence, Postemergence): 60%
- pest or weed control at 16 g/ha ([9]; pre-emergence, Preemergence): 10%
- pest or weed control at 62 g/ha ([9]; pre-emergence, Preemergence): 75%
- pest or weed control at 125 g/ha ([9]; pre-emergence, Preemergence): 98%
- pest or weed control at 16 g/ha ([10]; post-emergence, Postemergence): 15%
- pest or weed control at 31 g/ha ([10]; post-emergence, Postemergence): 25%
- pest or weed control at 62 g/ha ([10]; post-emergence, Postemergence): 40%
- pest or weed control at 125 g/ha ([10]; post-emergence, Postemergence): 65%
- pest or weed control at 16 g/ha ([10]; pre-emergence, Preemergence): 40%
- pest or weed control at 31 g/ha ([10]; pre-emergence, Preemergence): 75%
- pest or weed control at 62 g/ha ([10]; pre-emergence, Preemergence): 100%
- pest or weed control at 125 g/ha ([10]; pre-emergence, Preemergence): 100%
- pest or weed control at 16 g/ha ([11]; post-emergence, Postemergence): 100%
- pest or weed control at 31 g/ha ([11]; post-emergence, Postemergence): 100%
- pest or weed control at 62 g/ha ([11]; post-emergence, Postemergence): 100%
- pest or weed control at 125 g/ha ([11]; post-emergence, Postemergence): 100%
- pest or weed control at 16 g/ha ([11]; pre-emergence, Preemergence): 95%
- pest or weed control at 31 g/ha ([11]; pre-emergence, Preemergence): 100%
- pest or weed control at 62 g/ha ([11]; pre-emergence, Preemergence): 100%
- pest or weed control at 125 g/ha ([11]; pre-emergence, Preemergence): 100%
